Reference: US20250051762A1, “PLATFORM USING DNA-ENCODED SMALL MOLECULE LIBRARIES AND RNA SELECTION TO DESIGN SMALL MOLECULES THAT TARGET RNA” (University of Florida Research Foundation, Incorporated, priority 2021, published 2025)

Legend:
3×3 ILL = assay: 2DCS selection of microarray-immobilized compounds with 32P-labeled 3×3 ILL, Hit-StARTS analysis of RNA-seq; format: binding; conditions: Zobs >4
Method: The interaction landscape for the ten representative DEL compounds emerging from the FACS screen were then defined by 2DCS (22). In 2DCS, small molecules are site-specifically conjugated to a microarray surface and then probed for binding to an RNA library under highly stringent conditions (FIGS. 2-B & S6). That is, the array is co-incubated with a radioactively labeled RNA library and an excess of competitor oligonucleotides that mimic regions common to all library members. […] To enable site-specific immobilization of compounds 1-10, a C-terminal alkyne handle was installed for CuAAC click (30) coupling to azide-displaying array surfaces. Installation of the alkyne was accomplished by coupling of bromoacetic acid onto rink amide resin followed by nucleophilic displacement with propargylamine prior to the synthesis of the SPDEL compounds (FIG. 2A).
All ten compounds bound to the 3×3 ILL under the highly stringent conditions described above, almost all dose-dependently (FIG. 2B). The RNAs bound to each small molecule were harvested, reverse transcribed into DNA, and sequenced by RNA-seq. The resulting data set was statistically analyzed by using High Throughput Structure-Activity Relationships Through Sequencing (Hit-StARTS) (31) in which the relative frequency of each selected RNA is compared to the frequency of that RNA in the starting library (pooled population comparison). (31) The statistical significance of the enrichment of selected RNAs is quantified by Zobs, which correlates with affinity and selectivity. (31) Here, a cut-off of Zobs >4 was employed, which was empirically determined from measured affinities via evaluation of compound 9 binding with potential RNA motifs extracted from the 2DCS (FIGS. 2-B, 13, & 14). […] This cut-off afforded, on average, 60±40 (range: 6-155) preferred, or privileged, RNA 3D folds for each compound. Compound 6 bound to largest number of RNA targets (n=155) while compound 9 bound the fewest (n=6) (FIG. 14). […]

pri-miR-27a = assay: RT-qPCR of pri- and mature miR-27a in MCF-7 cells; format: cell-based, human; conditions: MCF-7, RT-qPCR
Method: Cell lines. Compounds were tested in MDA-MB-231 TNBC cells (HTB-26, ATCC), LNCaP metastatic prostate cancer cells (gifted from Junli Luo lab), MCF-7 (HTB-22, ATCC) breast cancer cells, HeLa cervical adenocarcinoma cells (CCL-2, ATCC), and MCF-10a, a model of healthy breast epithelial cells (CRL-10317, ATCC).
Cell culture and compound treatment. All cells were maintained at 37° C. with 5% CO2. MDA-MB-231 and LNCaP cells were cultured in RPMI 1640 medium with L-glutamine & 25 mM HEPES (Corning) supplemented with 10% (v/v) fetal bovine serum (FBS; Sigma) and 1× (v/v) Antibiotic-Antimycotic solution (Corning). MCF-7 and HeLa cells were cultured in DMEM medium with 4.5 g/L glucose (Corning), supplemented with 10% FBS, 1× (v/v) Glutagro (Corning), and 1× (v/v) Antibiotic-Antimycotic solution. […]
Analysis of mRNA abundance: Each cell line was grown as a monolayer in 12- or 24-well plates and treated as described in “Cell culture and compound treatment”. […] Relative abundance of mature miRNAs was calculated by normalizing to RNU6, and relative abundance for pri-miRNAs and mRNAs was calculated by normalizing to 18S ribosomal RNA, using the AAC, method. […]

C#CCN(CC(N)=O)C(=O)C[C@H](Cc1c[nH]c2ccccc12)NC(=O)[C@@H]1C[C@H](NC(=O)Cn2c(=O)[nH]c3ccccc3c2=O)CN1 [Compound 9]
number of RNA motifs bound that are unique to the compound (3×3 ILL): 2 | dose with significant inhibition of miR-27a processing (pri-miR-27a): 100 nM
